From patent US20250034182A1, “PHOSPHOLIPID COMPOUNDS AND METHODS OF MAKING AND USING THE SAME” (priority 2021, published 2025)
Like-named read-outs stand apart in the source and are kept apart here.

Tests used:
Type in all cases: cell-based
HCV Replicon 2A = HCV Replicon 2A EC50 (Example Q); details: Hepatitis C virus, 72 h, read-out: HCV Replicon 2A EC50 (nM) (per Ex. Q)
Description: (§1) Compounds were serially diluted in ten steps of 1:3 dilutions in 384-well plates. All serial dilutions were performed in four replicates per compound within the same 384-well plate. An HCV protease inhibitor ITMN-191 at […] was added as a control of 100% inhibition of HCV replication while puromycin at 10 mM was included as a control of 100% cytotoxicity. To each well of a black polystyrene 384-well plate (Greiner Bio-one, Monroe, NC), 90 μL of cell culture medium (without Geneticin) containing 2000 suspended HCV replicon cells was added with a Biotek μFlow workstation. For compound transfer into cell culture plates, 0.4 μL of compound solution from the compound serial dilution plate was transferred to the cell culture plate on a Biomek FX workstation. The DMSO concentration in the final assay wells was 0.44%. The plates were incubated for 3 days at 37° C. with 5% CO2 and 85% humidity. The HCV replicon assay was a multiplex assay, able to assess both cytotoxicity and antireplicon activity from the same well. The CC50 assay was performed first. The media in the 384-well cell culture plate was aspirated, and the wells were washed four times with 100 μL of PBS each, using a Biotek ELX405 plate washer. A volume of 50 μL of a solution containing 400 nM calcein AM (Anaspec, Fremont, CA) in 1×PBS was added to each well of the plate with a Biotek μFlow workstation. The plate was incubated for 30 min at room temperature before the fluorescence signal (excitation 490 nm, emission 520 nm) was measured with a Perkin-Elmer Envision plate reader. The EC50 assay was performed in the same wells as the CC50 assay. The calcein-PBS solution in the 384-well cell culture plate was aspirated with a Biotek ELX405 plate washer. A volume of 20 μL of Dual-Glo luciferase buffer (Promega, Madison, WI) was added to each well of the plate with a Biotek μFlow Workstation. The plate was incubated for 10 min at room temperature. A volume of 20 μL of a solution containing a 1:100 mixture of Dual-Glo Stop & Glo substrate (Promega, Madison, WI) and Dual-Glo Stop & Glo buffer (Promega, Madison, WI) was added to each well of the plate with a Biotek μFlow Workstation. The plate was then incubated at room temperature for 10 min before the luminescence signal was measured with a Perkin-Elmer Envision Plate Reader.

[1] = HCV Replicon 1B CC50, calcein AM (Example Q); details: calcein AM fluorescence, read-out: HCV Replicon 1B CC50 (nM) (per Ex. Q)
Description: as §1

HCV Replicon 1B = HCV Replicon 1B EC50 (Example Q); details: Hepatitis C virus, 72 h, read-out: HCV Replicon 1B EC50 (nM) (per Ex. Q)
Description: as §1

[2] = HCV Replicon 2A CC50, calcein AM (Example Q); details: calcein AM fluorescence, read-out: HCV Replicon 2A CC50 (nM) (per Ex. Q)
Description: as §1

[3] = system: Recombinant Respiratory Syncytial virus strain A2 containing the firefly luciferase reporter (RSV-Fluc) in NHBE cells; test: RSV NHBE FLuc EC50 (Example I); details: human respiratory syncytial virus, 72 h, read-out: RSV NHBE FLuc EC50 (nM) (per Ex. I)
How it was run: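 NHBE primary cells (passage 2-4) treated with threefold compound dilutions and infected with RSV A2 firefly-luciferase reporter virus at MOI 0.1; 3 days at 37° C, 5% CO2. ONE-Glo luminescence normalized to uninfected and infected DMSO controls; EC50 from non-linear regression, duplicates with two technical repeats.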

in vitro = details: human
Description: H1-HeLa cell viability was measured using the CellTiter-Glo® Luminescent Cell Viability Assay kit (Promega, Cat #G7573) according to the manufacturer's protocol. H1-HeLa cells were maintained in Dulbecco's Modified Eagle's Medium with high glucose (Gibco, Cat #: 11995073) supplemented with 10% FBS (HyClone, Cat #: SH303396.03), 100 units/mL penicillin and 100 µg/mL streptomycin (Gibco, Cat #: 15140122). One day before compound treatment, H1-HeLa cells were seeded at […] into 96-well plates (Corning, Cat #3904) in Opti-MEM (Gibco, Cat #: 31985070) supplemented with 2% FBS, and were incubated at 37° C. in a 100% humid atmosphere containing 5% (v/v) CO2. After overnight incubation, the cells were treated with three-fold serial dilutions of the compound. At 96 hours post treatment, CellTiter-Glo reagents were added into each well and luminescence signals were recorded by an EnVision plate reader. The relative cell viability was calculated by normalizing the absorbance of the compound-treated groups to that of the DMSO-treated groups (set as 100% viability) and 10 μM puromycin treated groups (set as 0% viability). The CC50 (compound concentration for reducing 50% of cell viability) was calculated using a nonlinear regression model (four parameters).

[4] = HCV replicon cells, 3 days, Dual-Glo luciferase

SMILES	EC50 (HCV Replicon 2A) [nM]	CC50 at 3 days ([1]; HCV replicon cells) [nM]	EC50 (HCV Replicon 1B) [nM]	CC50 at 3 days ([2]; HCV replicon cells) [nM]	EC50 [3] [nM]	CC50 at 96 h (in vitro) [µM]	EC50 (HCV Replicon 2A; [4]) [nM]	CC50 at 3 days ([1]; HCV replicon cells (1B)) [nM]	EC50 (HCV Replicon 1B; [4]) [nM]	CC50 at 3 days ([2]; HCV replicon cells (2A)) [nM]
CCCCCCCCCCCCCCCCCCOC[C@H](COP(=O)(O)OC[C@@]1(C#N)O[C@@H](c2ccc3c(N)ncnn23)[C@H](O)[C@@H]1O)OCc1cccc(C#N)n1 [Compound 68, ((2R,3S,4R)-5-(4-aminopyrrolo[2,1-f][1,2,4]triazin-7-yl)-2-cyano-3,4-dihydroxytetrahydrofuran-2-yl)methyl ((R)-2-((6-cyanopyridin-2-yl)methoxy)-3-(octadecyloxy)propyl) hydrogen phosphate]	15200	> 44400	11500	> 44400	36	8.71	–	–	–	–
CCCCCCCCCCCCCCCCCCOC[C@H](COP(=O)(O)OC[C@@]1(C#N)O[C@@H](c2ccc3c(N)ncnn23)[C@H](O)[C@@H]1O)OCc1ccc(C#N)c(Cl)c1 [Compound 7, ((2R,3S,4R,5S)-5-(4-aminopyrrolo[2,1-f][1,2,4]triazin-7-yl)-2-cyano-3,4-dihydroxytetrahydrofuran-2-yl)methyl ((R)-2-((3-chloro-4-cyanobenzyl)oxy)-3-(octadecyloxy)propyl) hydrogen phosphate]	–	–	–	–	113	3.88	30600	> 44400	16700	> 44400
CCCCCCCCCCCCCCCCC[C@H](COP(=O)(O)OC[C@@]1(C#N)O[C@@H](c2ccc3c(N)ncnn23)[C@H](O)[C@@H]1O)OCc1cc(F)cc(C#N)c1 [Compound 36, ((2R,3S,4R,5S)-5-(4-aminopyrrolo[2,1-f][1,2,4]triazin-7-yl)-2-cyano-3,4-dihydroxytetrahydrofuran-2-yl)methyl ((R)-2-((3-cyano-5-fluorobenzyl)oxy)nonadecyl) hydrogen phosphate]	21800	> 44400	26300	> 44400	121	9.56	–	–	–	–
CCCCCCCCCCCCCCCCCC[C@H](COP(=O)(O)OC[C@@]1(C#N)O[C@@H](c2ccc3c(N)ncnn23)[C@H](O)[C@@H]1O)OCc1cc(Cl)cc(C#N)c1 [Compound 81, ((2R,3S,4R,5S)-5-(4-aminopyrrolo[2,1-f][1,2,4]triazin-7-yl)-2-cyano-3,4-dihydroxytetrahydrofuran-2-yl)methyl ((R)-2-((3-chloro-5-cyanobenzyl)oxy)icosyl) hydrogen phosphate]	–	–	–	–	–	4.52	15900	> 44400	10700	37900
CCCCCCCCCCCCCCCC[C@@H](COP(=O)(O)OC[C@@]1(C#N)O[C@@H](c2ccc3c(N)ncnn23)[C@H](O)[C@@H]1O)OCc1cc(F)cc(C#N)c1 [Compound 79, ((2R,3S,4R,5S)-5-(4-aminopyrrolo[2,1-f][1,2,4]triazin-7-yl)-2-cyano-3,4-dihydroxytetrahydrofuran-2-yl)methyl ((S)-2-((3-cyano-5-fluorobenzyl)oxy)octadecyl) hydrogen phosphate]	–	–	–	–	–	6.74	20000	> 44400	24300	30200
CCCCCCCCCCCCCCCCCCC[C@H](COP(=O)(O)OC[C@@]1(C#N)O[C@@H](c2ccc3c(N)ncnn23)[C@H](O)[C@@H]1O)OCc1cc(Cl)cc(C#N)c1 [Compound 82, ((2R,3S,4R,5S)-5-(4-aminopyrrolo[2,1-f][1,2,4]triazin-7-yl)-2-cyano-3,4-dihydroxytetrahydrofuran-2-yl)methyl ((R)-2-((3-chloro-5-cyanobenzyl)oxy)henicosyl) hydrogen phosphate]	–	–	11300	–	–	4.03	19200	> 44400	–	37600
CCCCCCCCCCCCCCCCCCOC[C@H](COP(=O)(O)OC[C@@]1(C#N)O[C@@H](c2ccc3c(N)ncnn23)[C@H](O)[C@@H]1O)OCc1cc(F)cc(C#N)c1 [Compound 1, ((2R,3S,4R,5S)-5-(4-aminopyrrolo[2,1-f][1,2,4]triazin-7-yl)-2-cyano-3,4-dihydroxytetrahydrofuran-2-yl)methyl ((R)-2-((3-cyano-5-fluorobenzyl)oxy)-3-(octadecyloxy)propyl) hydrogen phosphate]	–	–	–	–	104	3.62	20600	> 44400	13800	> 44400
